Results: paper PMC8869358, “High-Throughput Chemical Screening and Structure-Based Models to Predict hERG Inhibition” (Biology, 2022)
Counter-ions that a name gives are not always drawn.

Biological target: hERG (Homo sapiens, UniProt Q12809)
Test: cell-based
Conditions: (-LOG10(IC50), µM)

Sequence of hERG (Q12809 whole entry): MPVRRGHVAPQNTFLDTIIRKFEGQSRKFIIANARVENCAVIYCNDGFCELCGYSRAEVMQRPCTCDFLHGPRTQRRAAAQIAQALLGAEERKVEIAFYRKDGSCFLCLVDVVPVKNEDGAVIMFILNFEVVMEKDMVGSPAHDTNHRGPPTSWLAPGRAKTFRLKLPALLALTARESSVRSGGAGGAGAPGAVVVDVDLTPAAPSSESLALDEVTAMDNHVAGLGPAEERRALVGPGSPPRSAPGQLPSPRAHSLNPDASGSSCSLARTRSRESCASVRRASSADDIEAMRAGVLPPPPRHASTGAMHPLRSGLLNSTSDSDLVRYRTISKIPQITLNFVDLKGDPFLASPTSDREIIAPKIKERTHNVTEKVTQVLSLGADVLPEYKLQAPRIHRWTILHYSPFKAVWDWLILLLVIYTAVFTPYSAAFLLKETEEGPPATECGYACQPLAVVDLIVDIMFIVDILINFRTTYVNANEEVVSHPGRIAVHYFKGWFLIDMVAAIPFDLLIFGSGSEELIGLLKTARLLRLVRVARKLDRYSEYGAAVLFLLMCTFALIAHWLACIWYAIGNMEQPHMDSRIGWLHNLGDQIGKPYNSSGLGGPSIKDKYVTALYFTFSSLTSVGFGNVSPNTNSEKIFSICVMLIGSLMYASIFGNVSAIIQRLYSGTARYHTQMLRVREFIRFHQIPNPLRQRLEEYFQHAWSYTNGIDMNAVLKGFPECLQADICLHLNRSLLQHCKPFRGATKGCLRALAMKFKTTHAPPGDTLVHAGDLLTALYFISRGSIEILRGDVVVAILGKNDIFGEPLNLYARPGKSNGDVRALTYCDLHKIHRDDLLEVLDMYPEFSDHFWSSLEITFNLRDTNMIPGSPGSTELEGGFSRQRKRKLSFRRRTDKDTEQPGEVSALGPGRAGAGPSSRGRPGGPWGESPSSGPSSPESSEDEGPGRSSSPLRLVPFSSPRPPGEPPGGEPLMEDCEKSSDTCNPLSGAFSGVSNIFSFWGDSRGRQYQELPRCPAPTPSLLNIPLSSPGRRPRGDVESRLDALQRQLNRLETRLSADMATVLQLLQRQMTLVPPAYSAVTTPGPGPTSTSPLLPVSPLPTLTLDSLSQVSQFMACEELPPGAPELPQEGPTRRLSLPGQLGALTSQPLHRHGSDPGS

| SMILES | IC50 [µM] |
| --- | --- |
| CNCCC(Oc1ccccc1OC)c1ccccc1 (stereo not shown) [Nisoxetine] | 9.52 |
| O=C(CCS)OCC(COC(=O)CCS)(COC(=O)CCS)COC(=O)CCS [3-[(3-Sulfanylpropanoyl)oxy]-2,2-bis{[(3-sulfanylpropanoyl)oxy]methyl}propyl 3-sulfanylpropanoate] | 33.4 |
| CN(C)S(=O)(=O)N(SC(F)(Cl)Cl)c1ccccc1 [Dichlofluanid] | 17.4 |
| C=CCOC(Cn1ccnc1)c1ccc(Cl)cc1Cl (stereo not shown) [Imazalil] | 29.8 |
| CCCCCCCCCCCCCCCC[N+](C)(C)Cc1ccccc1 [Benzylhexadecyldimethylammonium chloride] | 3.94 |
| O=[N+]([O-])C1(Br)COCOC1 [5-Bromo-5-nitro-1,3-dioxane] | 51.9 |
| CCOC(=O)C1=C[C@]2(CC)CCCN3CCc4c(n1c1ccccc41)[C@@H]32 [Vinpocetine] | 0.169 |
| Oc1ccc(C(=C(Cl)Cl)c2ccc(O)cc2)cc1 [Bis(4-hydroxyphenyl)-2,2-dichloroethylene] | 47 |
| CCc1cc(C(C)(C)C)c(O)c(C(C)(C)C)c1 [2,6-Di-tert-butyl-4-ethylphenol] | 19.5 |
| CC(CN1c2ccccc2Sc2ccccc21)N(C)C (stereo not shown) [Promethazine hydrochloride] | 23 |
| CN1CCC(N(Cc2cccs2)c2ccccc2)CC1 [Thenalidine] | 4.96 |
| O=[N+]([O-])c1ccc(Oc2ccc(Cl)cc2Cl)cc1 [Nitrofen] | 18.9 |
| N#Cc1sc2c(=O)c3ccccc3c(=O)c=2sc1C#N [Dithianon] | 30.9 |
| CCc1ccc(C(c2ccc(CC)cc2)C(Cl)Cl)cc1 [p,p'-Ethyl-DDD] | 17.7 |
| CCCCCCCCN[C@H](C)[C@@H](O)c1ccc(SC(C)C)cc1 [Suloctidil] | 0.29 |
| ClC1=C(Cl)C2(Cl)C3C(Cl)C=CC3C1(Cl)C2(Cl)Cl (stereo not shown) [Heptachlor] | 31 |
| CC1(C)CCC(C)(C)c2cc(C(=O)Nc3ccc(C(=O)O)cc3)ccc21 [AM580] | 43.6 |
| BrC(Br)C(Br)(Br)Br [Pentabromoethane] | 49.3 |
| CCCc1ccc(OCC(=O)N2CCN(C(=O)COc3ccc(CCC)cc3OC)CC2)c(OC)c1 [Simetride] | 1.4 |
| c1ccc(Nc2ccc(Nc3ccccc3)cc2)cc1 [N,N'-Diphenyl-p-phenylenediamine] | 41 |
| Cc1nc2n(c(=O)c1CCN1CCC(C(=O)c3ccc(F)cc3)CC1)CCS2 [Setoperone] | 9.89 |
| CCCCCCCCCCCCN1CCOCC1 [4-Dodecylmorpholine] | 15.5 |

| SMILES | IC50 [µM] |
| --- | --- |
| CN1[C@@H]2CC[C@H]1C[C@@H](OC(=O)c1c[nH]c3ccccc13)C2 [Tropisetron] | 12.9 |
| Brc1ccc(Oc2ccc(Br)cc2)cc1 [4,4'-Dibromodiphenyl ether] | 18.8 |
| O=[N+]([O-])c1ccccc1Nc1ccccc1 [2-Nitrodiphenylamine] | 48.7 |
| CCCCCCCCCCCC[N+](C)(C)C [Dodecyltrimethylammonium chloride] | 18 |
| COc1ccc2c(c1OC)C(=O)O[C@H]2[C@@H]1c2cc3c(cc2CCN1C)OCO3 [(1S,9R)-beta-Hydrastine] | 19 |
| CCN(CC)CCNc1ccc(CO)c2sc3ccccc3c(=O)c12 [Hycanthone] | 10.7 |
| COC(=O)C1=C(C)NC(C)=C(C(=O)OC(C)(C)CN(C)CCC(c2ccccc2)c2ccccc2)C1c1cccc([N+](=O)[O-])c1 (stereo not shown) [Lercanidipine hydrochloride] | 3.25 |
| O=C1c2ccccc2S(=O)(=O)N1CCCCN1CCN(c2ncccn2)CC1 [Ipsapirone] | 16.9 |
| CC(O)(c1ccc(Cl)cc1)c1ccc(Cl)cc1 [Chlorfenethol] | 46.2 |
| O=C(CCCN1CCN(c2ccc(F)cc2)CC1)NC1c2ccccc2CSc2ccccc21 (stereo not shown) [Monatepil] | 2.01 |
| CCCCC/C=C\C/C=C\CCCCCCCC(=O)NC(C)c1ccccc1 (stereo not shown) [Melinamide] | 21.3 |
| CCCCCCCCCCn1cc[n+](C)c1 [1-Decyl-3-methylimidazolium hexafluorophosphate] | 8.37 |
| C=CC(=O)OCC(CO)(COCC(COC(=O)C=C)(COC(=O)C=C)COC(=O)C=C)COC(=O)C=C [Dipentaerythritol pentaacrylate] | 8.28 |
| Nc1ccc(Cl)cc1C(=O)c1ccccc1 [2-Amino-5-chlorobenzophenone] | 50.9 |
| Clc1ccc(C(Cn2ccnc2)OCc2ccc(Sc3ccccc3)cc2)c(Cl)c1 (stereo not shown) [Fenticonazole] | 12.5 |
| CCCN(CCc1cccs1)[C@H]1CCc2c(O)cccc2C1 [Rotigotine] | 3.01 |
| CN(C)C(=O)NC1(c2ccccc2)CCN(CCC[C@]2(c3ccc(Cl)c(Cl)c3)CCCN(C(=O)c3ccccc3)C2)CC1 [SSR146977] | 1.71 |
| Cc1ccccc1OP(=O)(Oc1ccccc1C)Oc1ccccc1C [Tri-o-cresyl phosphate] | 21.1 |
| CCN(CC)CCOC(=O)C(C)(c1ccccc1)c1ccccc1 [Aprofene] | 9.16 |
| ClC(Cl)(Cl)c1ccc(C(Cl)(Cl)Cl)cc1 [1,4-Bis(trichloromethyl)benzene] | 14.2 |
| CC(C)COC(=O)COc1ccc(Cl)cc1Cl [2,4-D-isobutyl] | 43.6 |
| CC(C)(C)CC(C)(C)c1ccc(O)c(-n2nc3ccccc3n2)c1 [Octrizole] | 14.5 |

| SMILES | IC50 [µM] |
| --- | --- |
| Cc1cc2c(OCC(CNC(C)(C)C)OC(=O)c3ccccc3)cccc2[nH]1 (stereo not shown) [Bopindolol] | 21.3 |
| CN1C[C@H](C(=O)N[C@]2(C)O[C@@]3(O)[C@@H]4CCCN4C(=O)[C@H](Cc4ccccc4)N3C2=O)C=C2c3cccc4[nH]cc(c34)C[C@H]21 [Ergotamine D-tartrate] | 11.9 |
| N#CC(CCc1ccc(Cl)cc1)(Cn1cncn1)c1ccccc1 (stereo not shown) [Fenbuconazole] | 18.1 |
| CC(C)CCOC(=O)C=Cc1ccccc1 [Isoamyl cinnamate] | 39.1 |
| O=C1C=CC(=O)N1c1cccc(N2C(=O)C=CC2=O)c1 [N,N'-1,3-Phenylenedimaleimide] | 49 |
| CC1(c2ccc(Oc3ccccc3)cc2)OC(=O)N(Nc2ccccc2)C1=O (stereo not shown) [Famoxadone] | 22.9 |
| CCCCCCOc1cc(C)c(O)c(C)c1C [1-O-Hexyl-2,3,5-trimethylhydroquinone] | 31.3 |
| Cc1nc(-c2ccc3c(c2)CCN(CCC2CCC(NC(=O)/C=C/c4ccc(F)cc4)CC2)CC3)no1 (stereo not shown) [SB413217A] | 1.02 |
| Nc1ccc(N=Nc2ccccc2)c(N)c1 [C.I. Basic Orange 2] | 19.8 |
| CN(C)C(=O)C1(N2CCCCC2)CCN(CC[C@@]2(c3ccc(Cl)c(Cl)c3)CN(C(=O)c3ccccc3)CCO2)CC1 [SSR 241586 HCl] | 9.49 |
| CN(C)c1ccc(C(=N)c2ccc(N(C)C)cc2)cc1 [Auramine hydrochloride] | 44.8 |
| O=C1c2ccccc2C(=O)N1SC(Cl)(Cl)Cl [Folpet] | 27.5 |
| C/C=C/C=C/CCCCCCCO [8,10-Dodecadien-1-ol] | 22.7 |
| CC(C)(C)C(=O)C=Cc1ccc(Cl)cc1 [1-(4-Chlorophenyl)-4,4-dimethylpent-1-en-3-one] | 43.6 |
| CCC(OC(C)=O)C(C[C@H](C)NC)(c1ccccc1)c1ccccc1 (mixture of isomers) [L-Î±lpha-Noracetylmethadol hydrochloride] | 7.53 |
| CC=O [Acetaldehyde] | 5.33 |
| CCOC(=O)C(C)Oc1ccc(Oc2cnc3cc(Cl)ccc3n2)cc1 (stereo not shown) [Quizalofop-ethyl] | 17.1 |
| COC(=O)CSc1cc(N=c2sc(=O)n3n2CCCC3)c(F)cc1Cl [Fluthiacet-methyl] | 38.9 |
| CCOC(=O)Nc1ccc(NCc2ccc(F)cc2)nc1N [Flupirtine maleate] | 19 |
| CCc1nn(CCCN2CCN(c3cccc(Cl)c3)CC2)c(=O)n1CCOc1ccccc1 [Nefazodone hydrochloride] | 1.57 |
| CC(C)N(C(=O)SCC(Cl)=C(Cl)Cl)C(C)C [Tri-allate] | 20 |
| BrC1CCC(Br)C(Br)CCC(Br)C(Br)CCC1Br (stereo not shown) [1,2,5,6,9,10-Hexabromocyclododecane] | 19.2 |

| SMILES | IC50 [µM] |
| --- | --- |
| Clc1ccc(C(OCCN2CCCCC2)c2ccccc2)cc1 (stereo not shown) [Cloperastine hydrochloride] | 0.849 |
| CN(Cc1cc(Br)cc(Br)c1N)C1CCCCC1 [Bromhexine hydrochloride] | 12.5 |
| CCCCCCCCCCCCCN1CC(C)OC(C)C1 (stereo not shown) [Tridemorph] | 16.4 |
| CCCCC(CC)CN1CN(CC(CC)CCCC)CC(C)(N)C1 (stereo not shown) [Hexetidine] | 3.01 |
| CC(C)N1C(=O)N(c2ccccc2)CS/C1=N\C(C)(C)C [Buprofezin] | 19.5 |
| CCCCCCCCCCCCCCCC[N+](C)(C)C [Hexadecyltrimethylammonium bromide] | 20.1 |
| O=C1CC2(CCCC2)CC(=O)N1CCNCC1COc2ccccc2O1 (stereo not shown) [Binospirone mesylate] | 19 |
| CC(C)C1CCC(Cc2ccc(Cl)cc2)C1(O)Cn1cncn1 (stereo not shown) [Ipconazole] | 34.3 |
| Cc1c(C(=O)NN2CCCCC2)nn(-c2ccc(Cl)cc2Cl)c1-c1ccc(Cl)cc1 [Rimonabant] | 3.25 |
| COc1ccc2cc(S(=O)(=O)N[C@H](CC(=O)N[C@H](Cc3ccc(CN4[C@H](C)CCC[C@@H]4C)cc3)C(=O)N(C)C(C)C)c3ccc4c(c3)OCO4)ccc2c1 [SSR 240612] | 7.07 |
| CCCCc1oc2ccc(NS(C)(=O)=O)cc2c1C(=O)c1ccc(OCCCN(CCCC)CCCC)cc1 [Dronedarone] | 0.849 |
| CC(C)Nc1ccc(Nc2ccccc2)cc1 [N-Isopropyl-N'-phenyl-p-phenylenediamine] | 28.5 |
| Nc1ccc(C(=O)N2CC3CC(CN(Cc4ccccc4)C3)C2)cc1 [Ambasilide] | 21.3 |
| CN(C)c1ccc(C(=O)c2ccc(N(C)C)cc2)cc1 [Bis(4-(dimethylamino)phenyl)methanone] | 57.1 |
| ClCCCN1CCN(c2cccc(Cl)c2)CC1 [1-(3-Chlorophenyl)-4-(3-chloropropyl)piperazine hydrochloride] | 10.1 |
| CC(COc1ccc(Oc2ccccc2)cc1)Oc1ccccn1 (stereo not shown) [Pyriproxyfen] | 21 |
| CCCCCCCCCCCCCCn1cc[n+](C)c1 [1-Methyl-3-tetradecylimidazolium chloride] | 8.62 |
| C=C(C)CN(CC)c1c([N+](=O)[O-])cc(C(F)(F)F)cc1[N+](=O)[O-] [Ethalfluralin] | 36 |
| C[C@@H](NCCCc1cccc(C(F)(F)F)c1)c1cccc2ccccc12 [Cinacalcet hydrochloride] | 12 |
